# Test system: rabbit bullous keratopathy model
# Assay: Corneal endothelial cell injection therapy in rabbit bullous keratopathy model (Example 8)
# Format: in vivo
# Conditions: 14 days after cell injection; for expression of Na+/K+ ATPase: compared to control
# Source text: Male Japanese white rabbits (Biotek Co., Ltd., 8 rabbits) were subjected to the following nictitating membrane excision. Each animal was set in a positioner, and the ocular surface was topically anesthetized by instillation of a topical anesthesia (Benoxil instillation 0.4%, Santen Pharmaceutical Co., Ltd.). Then, the root position of the nictitating membrane was pressed with a clamp for 30 sec, and compressing mark was cut with scissors. After excision of the nictitating membrane, the antibiotic ointment (tarivid eye ointment, Santen Pharmaceutical Co., Ltd.) was instilled to prevent infection.
# Three days after nictitating membrane excision, phacoemulsification and aspiration surgery (PEA) was performed on the left eye. Under systemic anesthesia, 3 mm incision was formed in the corneoscleral limbus, crystalline lens was excised by a cataract surgery instrument (NIDEK Co., Ltd.), and the incision was sutured with a nylon thread (Mani Inc.). After phacoemulsification and aspiration surgery (PEA), the antibiotic ointment (tarivid eye ointment, Santen Pharmaceutical Co., Ltd.) was instilled to prevent infection. After 5 days from the PEA, the animals were systemically anesthetized by intramuscular administration of Ketalar muscular injection ([…], DAIICHI SANKYO COMPANY, LIMITED., 0.6 ml) and Celactal 2% Injection (Bayer, Ltd., 0.25 ml). Then, Benoxil instillation 0.4% (Santen Pharmaceutical Co., Ltd., one drop) was instilled and the eye was opened using a lid speculum. Thereafter, 1 mm incision was formed in the corneoscleral limbus, and corneal endothelial cells were scraped with a silicon surgical instrument to mechanically detach the cells. The detachment area was confirmed by trypan blue staining.
# The corneal endothelial cells were mechanically scraped, the cultured corneal endothelial cells were collected with 0.05% trypsin-EDTA (Invitrogen, Cat. #25300-054) from the culture flask to give a cell suspension. Using Dulbecco's modified Eagle's medium (DMEM) (Invitrogen, 12320-032), the cultured rabbit corneal endothelial cells were suspended in 3 groups of 10 μM compound (I)/DMEM, 100 μM Y-27632/DMEM and DMEM, each at 1.0×10^6 cells/ml. The cell suspension of each group (200 μl (2.0×10^5 cells per one eye)) was injected with a 22 gauge needle to the anterior chamber from the corneoscleral limbus of the prepared rabbit bullous keratopathy model, and the rabbit was fixed looking downward such that the corneal endothelium face was on the upper side and the corneal epithelial face was on the lower side for 3 hours. The fixing with looking downward was performed with appropriate addition of anesthetics, paying sufficient attention to animal protection.
# After 14 days from the cell injection, the treated eye was isolated, and a corneoscleral tissue was excised from the isolated eyeball. The obtained corneoscleral tissue was fixed with 4% para-formaldehyde/PBS for 10 min, and blocked overnight with PBS (Invitrogen, Cat. #14190-144) containing 1% BSA (SIGMA, Cat. #A7906-50G). Thereafter, the corneoscleral tissue was divided into two, and treated with Alexa-488 labeling phalloidin staining actin (Invitrogen, Cat. #Al2379), or anti-Na^+/K^+ ATPase antibody, which is a corneal endothelium marker (UP State, Cat. #05-369), for 2 hours. The anti-Na^+/K^+ ATPase antibody treatment group was further treated with Alexa-488 labeled secondary antibody (Invitrogen, Cat. #A-21202) for 1 hour. Thereafter, the cells were immersed in Vectashield (registered trade mark)-DAPI (Vector Laboratories, Cat. #H-1200) solution, and mounted using cover glass. The specimen was observed under a confocal laser microscope.
# Taking the number of nuclei stained with DAPI as the corneal endothelial cell count, the DAPI stained images were analyzed by Image-Pro plus (Media Cybernetics, Inc.), and corneal endothelial cells were counted.
structure (smiles),measurement,setting,value
"C[C@@H](N)c1ccc(C(=O)Nc2ccnc3[nH]ccc23)cc1.Cl [compound (I), (R)-(+)-N-(1H-pyrrolo[2,3-b]pyridin-4-yl)-4-(1-aminoethyl)benzamide monohydrochloride]",fibrosis of injected cells (Phalloidin staining),10 μM in cell suspension,suppression of fibrosis of cells
same,corneal endothelial cell count versus 100 μM Y-27632 group,10 μM,higher than that of the 100 μM Y-27632 treatment group
same,corneal endothelial cell count versus control group,10 μM,tended to show higher cell counts than the control group
same,expression of Na+/K+ ATPase,10 μM,expression of Na^+/K^+ ATPase was found
"C[C@@H](N)[C@H]1CC[C@H](C(=O)Nc2ccncc2)CC1 [Y-27632, reference compound]",fibrosis of injected cells (Phalloidin staining),100 μM in cell suspension,suppression of fibrosis of cells
same,corneal endothelial cell count versus control group,100 μM,tended to show higher cell counts than the control group
same,expression of Na+/K+ ATPase,100 μM,expression of Na^+/K^+ ATPase was found
